Results on 47 molecules are retold here after the Biogen ADME set (Fang et al. 2023).

The term aqueous solubility denotes the dissolved amount per volume that the medium holds. A higher aqueous solubility goes with a readily soluble substance.

For this series the following is noted: for aqueous solubility: pH 6.8.

The structures appear in SMILES notation. ≈ marks a conversion by molar mass, not a printed value. A value given as a limit tells only on which side of the number the result lay.

For the molecule `CCN(Cc1ccncc1)[C@@H]1CN(C(=O)c2ccccc2)C[C@H]1O`, the MDR1-MDCK efflux ratio was found to be 37.3; the intrinsic clearance, human liver microsomes amounted to 45.2 mL/min/kg; the intrinsic clearance, rat liver microsomes was determined as 361 mL/min/kg; the aqueous solubility was determined as 115 µg/mL (≈ 354 µM).

Turning to `Cc1ccc(-n2nc(C(C)(C)C)cc2NC(=O)NCc2cc(F)ccc2Oc2ccc3c(cnn3CCO)c2)cc1`, the MDR1-MDCK efflux ratio was 16.2 and the aqueous solubility came out at 0.2 µg/mL (≈ 0.359 µM).

As to `Cn1cc(C(=O)N2CCC(c3cc(C(F)(F)F)c4c(n3)CCNC4=O)CC2)ccc1=O`, the MDR1-MDCK efflux ratio was 0.752; the intrinsic clearance, human liver microsomes was no more than 4.74 mL/min/kg; the intrinsic clearance, rat liver microsomes is no more than 10.7 mL/min/kg; the aqueous solubility turned out to be 53 µg/mL (≈ 122 µM).

In the case of `CS(=O)(=O)c1ccc(-c2cnc(NCc3ccco3)n3cnnc23)cc1`, the MDR1-MDCK efflux ratio worked out at 14.8; the intrinsic clearance, human liver microsomes amounted to 15.7 mL/min/kg; the intrinsic clearance, rat liver microsomes stood at 31.2 mL/min/kg; the aqueous solubility was determined as 36.4 µg/mL (≈ 98.5 µM).

With `Cc1cc(F)ccc1S(=O)(=O)N1CCCc2cnc(N3CCOCC3)nc21`, the MDR1-MDCK efflux ratio came out at 0.723 and the aqueous solubility is 0.31 µg/mL (≈ 0.79 µM).

As for `C#CCN1CCC(c2nc(Cc3noc(C)n3)no2)CC1`, the MDR1-MDCK efflux ratio stood at 0.732; the intrinsic clearance, human liver microsomes is no more than 4.74 mL/min/kg; the intrinsic clearance, rat liver microsomes was determined as 12.8 mL/min/kg; the aqueous solubility is 49.5 µg/mL (≈ 172 µM).

Molecule `CC1(COc2ccc3c(c2)ncn3-c2ccc3cccc(N4CCC(N)CC4)c3n2)COC1` returned an intrinsic clearance, human liver microsomes of 57.1 mL/min/kg; an intrinsic clearance, rat liver microsomes of 196 mL/min/kg; an aqueous solubility of 32.8 µg/mL (≈ 74 µM).

In the case of `Cc1ccc(CCNC(=O)c2ccncc2)o1`, the MDR1-MDCK efflux ratio was 0.705; the intrinsic clearance, human liver microsomes is no more than 4.74 mL/min/kg; the intrinsic clearance, rat liver microsomes worked out at 52.3 mL/min/kg; the aqueous solubility is 29.3 µg/mL (≈ 127 µM).

As to `Cc1cccc(C(=O)NCC#Cc2ccccc2)n1`, the MDR1-MDCK efflux ratio turned out to be 0.421; the intrinsic clearance, human liver microsomes was 38.2 mL/min/kg; the intrinsic clearance, rat liver microsomes stood at 557 mL/min/kg; the aqueous solubility amounted to 29.7 µg/mL (≈ 119 µM).

For the molecule `CCOC(=O)c1ccc(N2CCSCC2)nc1`, the MDR1-MDCK efflux ratio was 0.309; the intrinsic clearance, human liver microsomes stood at 411 mL/min/kg; the intrinsic clearance, rat liver microsomes is 2980 mL/min/kg.

In the case of `CC(=O)c1cc(Br)cc(F)c1OCc1ccccn1`, the MDR1-MDCK efflux ratio stood at 0.622; the intrinsic clearance, human liver microsomes is 66 mL/min/kg; the intrinsic clearance, rat liver microsomes was found to be 316 mL/min/kg.

With `CCCNC(=O)c1ccc(OC2CCN(C)CC2)cc1`, the intrinsic clearance, human liver microsomes is no more than 4.74 mL/min/kg and the intrinsic clearance, rat liver microsomes turned out to be 35.1 mL/min/kg.

As to `N#CCn1ncnc1-c1cccc(C#N)c1`, the MDR1-MDCK efflux ratio came out at 0.748; the intrinsic clearance, human liver microsomes is no more than 4.74 mL/min/kg; the intrinsic clearance, rat liver microsomes was 50.8 mL/min/kg.

On to `COc1ccc(Br)c(-c2nnc(N)o2)c1`, for which the MDR1-MDCK efflux ratio came to 0.707; the intrinsic clearance, human liver microsomes was determined as 16.4 mL/min/kg; the intrinsic clearance, rat liver microsomes turned out to be 59.2 mL/min/kg; the aqueous solubility stood at 24.8 µg/mL (≈ 91.7 µM).

Take `N#CCN1CCC(CNC(=O)c2c(F)ccc(F)c2F)CC1`: the MDR1-MDCK efflux ratio was found to be 1.76; the intrinsic clearance, human liver microsomes is 4.81 mL/min/kg; the intrinsic clearance, rat liver microsomes is 15.7 mL/min/kg.

Consider `O=C(/C=C\n1cnc(-c2cc(C(F)(F)F)cc(C(F)(F)F)c2)n1)NNc1cnccn1`, for which the MDR1-MDCK efflux ratio came to 1.96; the intrinsic clearance, human liver microsomes is 4.77 mL/min/kg; the intrinsic clearance, rat liver microsomes turned out to be 14.3 mL/min/kg; the aqueous solubility was 12.5 µg/mL (≈ 28.1 µM).

As to `COc1cccc(C2NC(=O)NC(C)=C2C(=O)OCc2ccc3c(c2)OCO3)c1` (stereo not drawn), the aqueous solubility was 18 µg/mL (≈ 45.5 µM).

On to `CCC(C)(C)NC(=O)C1(Cc2ccc(-c3cc(F)ccc3OC)cc2)CCOCC1`, for which the MDR1-MDCK efflux ratio was determined as 1.62; the intrinsic clearance, human liver microsomes is 700 mL/min/kg; the intrinsic clearance, rat liver microsomes is 1020 mL/min/kg; the aqueous solubility came out at 12 µg/mL (≈ 28.9 µM).

`O=c1c(N2CCCC2)c(Cl)cnn1-c1ccccc1`: the aqueous solubility was determined as 17.1 µg/mL (≈ 62.1 µM).

`Cc1cc(C)c(CC(=O)N2CC(CO)C2)c(C)c1`: the MDR1-MDCK efflux ratio amounted to 1.72; the intrinsic clearance, human liver microsomes turned out to be 4.99 mL/min/kg; the intrinsic clearance, rat liver microsomes was 15.6 mL/min/kg; the aqueous solubility turned out to be 46.3 µg/mL (≈ 187 µM).

In the case of `CCCc1cc(CNC(=O)N2C[C@H]3C[C@@H](C2)c2cccc(=O)n2C3)on1`, the MDR1-MDCK efflux ratio is 16.4; the intrinsic clearance, human liver microsomes came to 16.6 mL/min/kg; the intrinsic clearance, rat liver microsomes was determined as 90.4 mL/min/kg.

`CC1(C)CN(C(=O)c2cscn2)CCS1(=O)=O` gave an aqueous solubility of 39.9 µg/mL (≈ 145 µM).

Consider `Cc1csc2nc3n(c(=O)c12)CCNCC3`, for which the MDR1-MDCK efflux ratio worked out at 0.686; the intrinsic clearance, human liver microsomes stood at 7.83 mL/min/kg; the intrinsic clearance, rat liver microsomes is 228 mL/min/kg.

Take `CNC(=O)CC1CCN(c2ncccn2)CC1`: the MDR1-MDCK efflux ratio was 0.823; the intrinsic clearance, human liver microsomes was no more than 4.74 mL/min/kg; the intrinsic clearance, rat liver microsomes was no more than 10.7 mL/min/kg; the aqueous solubility came out at 50 µg/mL (≈ 213 µM).

The molecule `O=C(Nc1ncccc1OC(F)F)C1CCCCC1` showed an intrinsic clearance, human liver microsomes of 61.6 mL/min/kg and an intrinsic clearance, rat liver microsomes of 1090 mL/min/kg.

With `O=C1NCCN(C(=O)c2ccncc2)C1c1ccccc1Cl` (stereo not drawn), the MDR1-MDCK efflux ratio amounted to 4.46; the fraction unbound, human plasma is 0.753; the fraction unbound, rat plasma is 0.738; the intrinsic clearance, human liver microsomes was no more than 4.74 mL/min/kg. The molecule further had an intrinsic clearance, rat liver microsomes of 93.1 mL/min/kg and an aqueous solubility of 44.2 µg/mL (≈ 140 µM).

With `O=C(Nc1nc2ccccc2[nH]1)c1ccncc1`, the MDR1-MDCK efflux ratio came to 1.24; the intrinsic clearance, human liver microsomes was no more than 4.74 mL/min/kg; the intrinsic clearance, rat liver microsomes is 109 mL/min/kg; the aqueous solubility was 5.09 µg/mL (≈ 21.4 µM).

`N#Cc1cc(F)c(C(=O)Nc2ccnc(NC(=O)[C@H]3C[C@H]3F)c2)c(Cl)c1`: the MDR1-MDCK efflux ratio worked out at 42.6; the intrinsic clearance, human liver microsomes was no more than 4.74 mL/min/kg; the aqueous solubility stood at 67.5 µg/mL (≈ 179 µM).

On to `COc1ccc(CNC(=O)c2nnn(-c3ccc(OC)cc3)c2N)cc1`, for which the MDR1-MDCK efflux ratio is 0.513; the intrinsic clearance, human liver microsomes was found to be 7.49 mL/min/kg; the intrinsic clearance, rat liver microsomes turned out to be 80.4 mL/min/kg; the aqueous solubility is 11.5 µg/mL (≈ 32.7 µM).

`CCN(C(=O)CO)[C@H]1CN(/C(=N\C#N)Nc2cccc(OC(F)F)c2)N=C1c1ccc(Cl)c(Cl)c1` showed an intrinsic clearance, human liver microsomes of 45 mL/min/kg; an intrinsic clearance, rat liver microsomes of 184 mL/min/kg; an aqueous solubility of 2.33 µg/mL (≈ 4.44 µM).

Consider `Cc1nc(-c2ccccc2)ccc1C(=O)N1CCCS1(=O)=O`, for which the MDR1-MDCK efflux ratio stood at 0.766; the intrinsic clearance, human liver microsomes is no more than 4.74 mL/min/kg; the intrinsic clearance, rat liver microsomes amounted to 96 mL/min/kg; the aqueous solubility was determined as 78.5 µg/mL (≈ 248 µM).

For the molecule `CC(C)Oc1ccc(CCNC(=O)N2CCC[C@H]2C(=O)N2CCCCC2)cc1`, the MDR1-MDCK efflux ratio stood at 50.9; the intrinsic clearance, human liver microsomes came to 19.7 mL/min/kg; the intrinsic clearance, rat liver microsomes came to 492 mL/min/kg.

On to `c1ccc(-c2noc(NCC3CCC3)n2)cc1`, for which the MDR1-MDCK efflux ratio worked out at 0.605; the intrinsic clearance, human liver microsomes turned out to be 119 mL/min/kg; the intrinsic clearance, rat liver microsomes was 741 mL/min/kg; the aqueous solubility came to 34.7 µg/mL (≈ 151 µM).

In turn, `Cc1nc(C#N)c(C#N)n1Cc1csc(-c2cccs2)n1` displayed an intrinsic clearance, human liver microsomes of 88.8 mL/min/kg; an intrinsic clearance, rat liver microsomes of 1710 mL/min/kg; an aqueous solubility of 32.2 µg/mL (≈ 104 µM).

Turning to `CC(C)CN1CC[C@H](c2nc3ccc(C#N)cc3[nH]2)C1`, the MDR1-MDCK efflux ratio stood at 1.46; the intrinsic clearance, human liver microsomes was 6.69 mL/min/kg; the intrinsic clearance, rat liver microsomes was determined as 76.3 mL/min/kg; the aqueous solubility amounted to 36.7 µg/mL (≈ 137 µM).

With `Cc1cccc(NC(=O)c2cccnc2N2CCCCC2)n1`, the MDR1-MDCK efflux ratio worked out at 0.697; the intrinsic clearance, human liver microsomes is 120 mL/min/kg; the intrinsic clearance, rat liver microsomes was 1670 mL/min/kg; the aqueous solubility was 27.6 µg/mL (≈ 93.1 µM).

Consider `O=C(CN1CCCC(c2nc3ccccc3o2)C1)Nc1ccc(OC(F)(F)F)cc1` (stereo not drawn), for which the MDR1-MDCK efflux ratio came out at 0.983; the intrinsic clearance, human liver microsomes was 134 mL/min/kg; the intrinsic clearance, rat liver microsomes was 496 mL/min/kg; the aqueous solubility stood at 6.85 µg/mL (≈ 16.3 µM).

In the case of `CNC(=O)CCc1nc(-c2ccccn2)no1`, the MDR1-MDCK efflux ratio amounted to 1.05; the intrinsic clearance, human liver microsomes was no more than 4.74 mL/min/kg; the intrinsic clearance, rat liver microsomes is no more than 10.7 mL/min/kg; the aqueous solubility stood at 50.5 µg/mL (≈ 217 µM).

In the case of `N#Cc1cccc(NCc2ccc(-c3cccnc3)o2)c1`, the intrinsic clearance, human liver microsomes stood at 91.5 mL/min/kg and the intrinsic clearance, rat liver microsomes was found to be 416 mL/min/kg.

On to `CC(C)NC(=O)C1(Cc2ccccc2-c2ccncc2)CCOCC1`, for which the MDR1-MDCK efflux ratio is 51.7; the intrinsic clearance, human liver microsomes came to 269 mL/min/kg; the intrinsic clearance, rat liver microsomes worked out at 981 mL/min/kg.

For the molecule `O=C(Nc1ccn(-c2ncccc2Cl)n1)c1csnn1`, the aqueous solubility is 28.5 µg/mL (≈ 92.9 µM).

On to `Cc1cc(Cl)c(OCCCN2CCNCC2)c(Br)c1`, for which the intrinsic clearance, human liver microsomes was no more than 4.74 mL/min/kg; the intrinsic clearance, rat liver microsomes was determined as 461 mL/min/kg; the aqueous solubility worked out at 36.9 µg/mL (≈ 106 µM).

Consider `Cc1ccc(NC(=O)CN(C)C(=O)c2ccccc2F)nc1`, for which the MDR1-MDCK efflux ratio stood at 1.43; the intrinsic clearance, human liver microsomes was no more than 4.74 mL/min/kg; the intrinsic clearance, rat liver microsomes was determined as 103 mL/min/kg; the aqueous solubility worked out at 54 µg/mL (≈ 179 µM).

Regarding `CCOC(=O)c1c(C)[nH]c(CN(Cc2ccccc2)C(=O)c2ccccc2Cl)c1C`, the MDR1-MDCK efflux ratio stood at 2.14; the intrinsic clearance, human liver microsomes amounted to 311 mL/min/kg; the intrinsic clearance, rat liver microsomes turned out to be 1490 mL/min/kg; the aqueous solubility stood at 5.15 µg/mL (≈ 12.1 µM).

Consider `COc1ccc(F)cc1-c1ccc(-c2nnco2)cc1`, for which the intrinsic clearance, human liver microsomes was found to be 23.8 mL/min/kg and the intrinsic clearance, rat liver microsomes is 333 mL/min/kg.

As for `COc1ccc2nc(CN3CCC(O)(c4ccc(C)cc4)CC3)ccc2c1`, the MDR1-MDCK efflux ratio was found to be 0.485; the intrinsic clearance, human liver microsomes came to 44.5 mL/min/kg; the intrinsic clearance, rat liver microsomes amounted to 631 mL/min/kg; the aqueous solubility came to 29.7 µg/mL (≈ 81.9 µM).

For `CC(C)c1nnc(CN2CCN(c3ccccc3Cl)CC2)o1`, the MDR1-MDCK efflux ratio was found to be 0.652; the intrinsic clearance, human liver microsomes was 91 mL/min/kg; the intrinsic clearance, rat liver microsomes amounted to 869 mL/min/kg; the aqueous solubility amounted to 50.7 µg/mL (≈ 158 µM).
